Measured values: ChEMBL document CHEMBL1139040, “4-Methylideneisoxazolidin-5-ones--a new class of alpha-methylidene-gamma-lactones with high cytostatic activity” (Bioorg Med Chem Lett, 2006)

Assays:
Assay type in all cases: functional, cell-based
[1] = system: L1210; assay: Antiproliferative activity against mouse L1210 leukemia cell line
[2] = system: HL-60; assay: Antiproliferative activity against human HL60 leukemia cell line
[3] = system: NALM-6; assay: Antiproliferative activity against human NALM6 leukemia cell line

Row | SMILES | IC50 [1] [µM] | IC50 [2] [µM] | IC50 [3] [µM]
1 | C=C1C(=O)ON(C)C1c1ccc(OC)cc1 (configuration not stated) | 3.5 | 5.4 | 5.5
2 | C=C1C(=O)ON(C)C1c1cccc2ccccc12 (configuration not stated) | 3.2 | 5.6 | 4.2
3 | C=C1C(=O)ON(C)C1c1ccc([N+](=O)[O-])cc1 (configuration not stated) | 0.8 | 7.4 | 5.2
4 | C=C1C(=O)ON(C)C1c1ccc(C)cc1 (configuration not stated) | 0.8 | 5.4 | 5.8

Continued, in another order:

Row | IC50 [1] [µM] | IC50 [2] [µM] | SMILES | IC50 [3] [µM]
5 | 0.7 | 5.1 | C=C1C(=O)ON(C)C1c1ccc(Br)cc1 (configuration not stated) | 4.6
6 | 2.63 | 0.74 | C=C1C(=O)ON(C)C1C(C)C (configuration not stated) | 4.16
7 | 5.5 | 34.8 | C=C1C(=O)ON(C)C1c1ccccc1 (configuration not stated) | 4.96
8 | 7 | 6.6 | C=C1C(=O)ON(C)C1c1ccc2c(c1)OCO2 (configuration not stated) | 4.2
9 | 1.9 | 4.7 | C=C1C(=O)ON(C)C1C(C)CCC (configuration not stated) | 0.34
